Structures are written as SMILES. Some results are limits rather than exact numbers.

The target in one assay is CDK12/CycK (Homo sapiens, UniProt Q9NYV4). The experiment in a line: CDK12/CycK high ATP kinase assay (TR-FRET, 2 mM ATP). The settings on record: 2 mM ATP (high ATP); median; read-out: CDK12/CyclinK, 2 mM ATP (high ATP), IC50-[mol/l] (median). It is filed as biochemical. The essentials:
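His-tagged human CDK12/CycK (~0.75 nM) pre-incubated 15 min with compound, then 60 min at 22 °C with 2 mM ATP and 1 µM biotinylated peptide (HEPES pH 7.5, 20 mM MgCl2). EDTA stop; phospho-Ser62 antibody/Eu anti-rabbit and streptavidin-XL665 TR-FRET, 665/620 nm ratio normalised to give IC50.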

The subject of assay [1] is CAL-120, human breast adenocarcinoma cells. The experiment in a line: Proliferation assay CAL-120 (crystal violet, 4 days). It counts as cell-based. The settings on record: Homo sapiens, CAL-120, 96 h, CAL-120 cells, median, read-out: Prolif-CAL-120, IC50-[mol/l] (median). The essentials:
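Cells seeded at 4,000/well in medium with 10% FCS; after 24 h, compounds added at 0.01-10 µmol/L (0.1% DMSO) for 4 days. Glutaraldehyde-fixed, crystal violet-stained, absorbance at 595 nm normalized to zero-point plate (0%) and untreated cells (100%); IC50 by 4-parameter fit.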

Sequence of CDK12/CycK (Q9NYV4 with tags, fused parts or gaps): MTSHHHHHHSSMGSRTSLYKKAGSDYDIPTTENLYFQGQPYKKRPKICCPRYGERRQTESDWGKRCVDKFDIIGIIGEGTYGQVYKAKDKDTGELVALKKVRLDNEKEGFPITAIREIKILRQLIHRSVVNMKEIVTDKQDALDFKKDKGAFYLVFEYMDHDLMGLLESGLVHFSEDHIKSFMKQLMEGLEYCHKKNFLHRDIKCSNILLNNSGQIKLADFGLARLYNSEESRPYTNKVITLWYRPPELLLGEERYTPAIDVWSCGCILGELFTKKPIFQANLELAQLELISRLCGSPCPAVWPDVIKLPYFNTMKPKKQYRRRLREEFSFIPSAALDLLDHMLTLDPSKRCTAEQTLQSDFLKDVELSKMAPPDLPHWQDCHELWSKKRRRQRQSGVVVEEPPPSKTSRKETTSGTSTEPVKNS
Sequence of CDK12/CycK (O75909 1-300 partner limits assumed): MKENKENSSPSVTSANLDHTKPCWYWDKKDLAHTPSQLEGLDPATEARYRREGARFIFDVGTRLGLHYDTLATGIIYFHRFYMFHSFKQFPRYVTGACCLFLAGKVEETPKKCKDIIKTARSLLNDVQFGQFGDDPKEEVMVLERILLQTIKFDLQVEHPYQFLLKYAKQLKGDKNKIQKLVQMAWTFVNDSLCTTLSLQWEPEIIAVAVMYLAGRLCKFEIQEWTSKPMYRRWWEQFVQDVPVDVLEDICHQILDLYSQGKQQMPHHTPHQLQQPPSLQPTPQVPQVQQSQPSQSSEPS

As to `COc1ccccc1-c1nnc(CNc2nc(N3CCN(C)CC3)nc3c(C4CC4(F)F)cnn23)[nH]1` (centres unmarked) [Example 430, 8-(2,2-difluorocyclopropyl)-N-{[5-(2-methoxyphenyl)-4H-1,2,4-triazol-3-yl]methyl}-2-(4-methylpiperazin-1-yl)pyrazolo[1,5-a][1,3,5]triazin-4-amine], the IC50 on CDK12/CycK is above 20000 nM; in assay [1], 38.6 nM.
For `Clc1cc2nc(CNc3nc(N4CCOCC4)nc4c(-c5cncs5)cnn34)[nH]c2cc1Cl` [Example 443, N-[(5,6-dichloro-1H-benzimidazol-2-yl)methyl]-2-(morpholin-4-yl)-8-(1,3-thiazol-5-yl)pyrazolo[1,5-a][1,3,5]triazin-4-amine] the same measures were 3980 nM and 5.31 nM.
Take `Cn1cc(-c2cnn3c(NCc4nc5c(F)c(F)ccc5[nH]4)nc(N4CCOCC4)nc23)cn1` [Example 418, N-[(4,5-difluoro-1H-benzimidazol-2-yl)methyl]-8-(1-methyl-1H-pyrazol-4-yl)-2-(morpholin-4-yl)pyrazolo[1,5-a][1,3,5]triazin-4-amine]: the IC50 at CDK12/CycK is above 20000 nM; in assay [1], 64.4 nM.
As to `CC(C)COc1nc(NCc2nc3ccccc3[nH]2)n2ncc(Br)c2n1` [Example 409, N-[(1H-benzimidazol-2-yl)methyl]-8-bromo-2-(2-methylpropoxy)pyrazolo[1,5-a][1,3,5]triazin-4-amine], the IC50 is above 15800 nM on CDK12/CycK and 99 nM in assay [1].
Take `CC(C)c1cnn2c(NCc3ncc(-c4ccccc4)[nH]3)nc(N3CCCCC3)nc12` [Example 36, N-[(5-phenyl-1H-imidazol-2-yl)methyl]-2-(piperidin-1-yl)-8-(propan-2-yl)pyrazolo[1,5-a][1,3,5]triazin-4-amine]: at CDK12/CycK, the IC50 was above 20000 nM.
In the case of `Fc1cccc2[nH]c(CNc3nc(N4CCN5CCC4CC5)nc4c(C(F)(F)F)cnn34)nc12` [Example 410, 2-(1,4-diazabicyclo[3.2.2]nonan-4-yl)-N-[(4-fluoro-1H-benzimidazol-2-yl)methyl]-8-(trifluoromethyl)pyrazolo[1,5-a][1,3,5]triazin-4-amine], the values for the IC50 (on CDK12/CycK; in assay [1]) were 1580 nM and 3.07 nM, respectively.
As for `CC(C)c1cnn2c(NCc3nnc(-c4ccccc4)[nH]3)nc(N(C)CC(C)(C)O)nc12` [Example 39, 2-methyl-1-{methyl[4-{[(5-phenyl-4H-1,2,4-triazol-3-yl)methyl]amino}-8-(propan-2-yl)pyrazolo[1,5-a][1,3,5]triazin-2-yl]amino}propan-2-ol], the IC50 on CDK12/CycK amounted to 4670 nM.
As to `CCNc1nc(NCc2nnc(-c3ccccc3)[nH]2)n2ncc(C(C)C)c2n1` [Example 38, N^2-ethyl-N^4-[(5-phenyl-4H-1,2,4-triazol-3-yl)methyl]-8-(propan-2-yl)pyrazolo[1,5-a][1,3,5]triazine-2,4-diamine], the IC50 at CDK12/CycK was above 5710 nM.
Still for that read-out and setting: under `CCNc1nc(NCc2ncc(-c3ccccc3)[nH]2)n2ncc(C(C)C)c2n1` [Example 34, N^2-ethyl-N^4-[(5-phenyl-1H-imidazol-2-yl)methyl]-8-(propan-2-yl)pyrazolo[1,5-a][1,3,5]triazine-2,4-diamine] stands above 5710 nM; under `CC(C)c1cnn2c(NCc3nnc(-c4ccccc4)[nH]3)nc(N3CCN(C)CC3)nc12` [Example 37, 2-(4-methylpiperazin-1-yl)-N-[(5-phenyl-4H-1,2,4-triazol-3-yl)methyl]-8-(propan-2-yl)pyrazolo[1,5-a][1,3,5]triazin-4-amine], above 20000 nM.
Still for that read-out and setting: under `CC(C)c1cnn2c(NCc3nnc(-c4ccccc4)[nH]3)nc(N3CCOCC3)nc12` [Example 33, 2-(morpholin-4-yl)-N-[(5-phenyl-4H-1,2,4-triazol-3-yl)methyl]-8-(propan-2-yl)pyrazolo[1,5-a][1,3,5]triazin-4-amine] stands 5230 nM; under `CC(C)c1cnn2c(NCc3ncc(-c4ccccc4)[nH]3)nc(N(C)CC(C)(C)O)nc12` [Example 35, 2-methyl-1-{methyl[4-{[(5-phenyl-1H-imidazol-2-yl)methyl]amino}-8-(propan-2-yl)pyrazolo[1,5-a][1,3,5]triazin-2-yl]amino}propan-2-ol], 2210 nM.

The record behind these values is patent publication US20230117034A1, “PYRAZOLOTRIAZINES” (Bayer Aktiengesellschaft, priority 2019, published 2023).
